Source: PMC4729767 (Theranostics, 2016)

What was measured:
C6 cells = assay: Annexin V-FITC/PI apoptosis study; format: cell-based, murine; conditions: PTX 1 μg/mL, 24 h, flow cytometer, n = 3, mean ± SD
[1] = test system: intracranial C6 glioma bearing mice; assay: Anti-glioma efficacy; format: in vivo, Balb/c mice; conditions: versus Saline; PTX 3 mg/kg i.v. x 6; n = 9
[2] = In vitro drug release by dialysis; format: physicochemical; conditions: dialysis (MWCO 8-14 kDa), PBS pH 7.4 with 0.1% Tween 80, 37 °C, 48 h, HPLC, n = 3

CC(=O)O[C@H]1C(=O)[C@@]2(C)[C@H]([C@H](OC(=O)c3ccccc3)[C@]3(O)C[C@H](OC(=O)[C@H](O)[C@@H](NC(=O)c4ccccc4)c4ccccc4)C(C)=C1C3(C)C)[C@]1(OC(C)=O)CO[C@@H]1C[C@@H]2O [free PTX, Paclitaxel]
apoptosis and necrosis rates of C6 cells (C6 cells): 75.65 ± 1.77%
Increased survival time [1]: 53%
PTX release behavior [2]: ≤ 8 h
